Measured values published in US20250376461A1, “INDAZOLE DERIVATIVES FOR TREATING TRPM3-MEDIATED DISORDERS” (Katholieke Universiteit Leuven, priority 2022, published 2025).

Molecular target: T1, mouse TRPM3α2 (mTRPM3) ion channel (Mus musculus, UniProt J9SQF3)
T1 construct: expressed in transfected cells; host or cells: flip-in HEK293
Test: TRPM3 ion channel driven Ca2+ uptake, Fluo-4 AM assay, mTRPM3alpha2 overexpressing flip-in HEK293 cells stimulated with pregnenolone sulfate (50 μM)
Type: cell-based
Settings: mTRPM3 overexpressing HEK293 cells stimulated with pregnenolone sulfate (50 μM), activity ranges A, B, C
Outline: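 Ca2+ influx via mouse TRPM3α2 was opened with pregnenolone sulfate (50 μM) and tracked by Fluo-4 AM fluorescence at 485/535 nm, read directly after adding about 2000 stably transfected HEK293 cells per well to compound. IC50 values come from percent inhibition scaled to vehicle and positive-control inhibitor signals.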

T1 sequence (J9SQF3 1-1709 isoform J9SQF3-12): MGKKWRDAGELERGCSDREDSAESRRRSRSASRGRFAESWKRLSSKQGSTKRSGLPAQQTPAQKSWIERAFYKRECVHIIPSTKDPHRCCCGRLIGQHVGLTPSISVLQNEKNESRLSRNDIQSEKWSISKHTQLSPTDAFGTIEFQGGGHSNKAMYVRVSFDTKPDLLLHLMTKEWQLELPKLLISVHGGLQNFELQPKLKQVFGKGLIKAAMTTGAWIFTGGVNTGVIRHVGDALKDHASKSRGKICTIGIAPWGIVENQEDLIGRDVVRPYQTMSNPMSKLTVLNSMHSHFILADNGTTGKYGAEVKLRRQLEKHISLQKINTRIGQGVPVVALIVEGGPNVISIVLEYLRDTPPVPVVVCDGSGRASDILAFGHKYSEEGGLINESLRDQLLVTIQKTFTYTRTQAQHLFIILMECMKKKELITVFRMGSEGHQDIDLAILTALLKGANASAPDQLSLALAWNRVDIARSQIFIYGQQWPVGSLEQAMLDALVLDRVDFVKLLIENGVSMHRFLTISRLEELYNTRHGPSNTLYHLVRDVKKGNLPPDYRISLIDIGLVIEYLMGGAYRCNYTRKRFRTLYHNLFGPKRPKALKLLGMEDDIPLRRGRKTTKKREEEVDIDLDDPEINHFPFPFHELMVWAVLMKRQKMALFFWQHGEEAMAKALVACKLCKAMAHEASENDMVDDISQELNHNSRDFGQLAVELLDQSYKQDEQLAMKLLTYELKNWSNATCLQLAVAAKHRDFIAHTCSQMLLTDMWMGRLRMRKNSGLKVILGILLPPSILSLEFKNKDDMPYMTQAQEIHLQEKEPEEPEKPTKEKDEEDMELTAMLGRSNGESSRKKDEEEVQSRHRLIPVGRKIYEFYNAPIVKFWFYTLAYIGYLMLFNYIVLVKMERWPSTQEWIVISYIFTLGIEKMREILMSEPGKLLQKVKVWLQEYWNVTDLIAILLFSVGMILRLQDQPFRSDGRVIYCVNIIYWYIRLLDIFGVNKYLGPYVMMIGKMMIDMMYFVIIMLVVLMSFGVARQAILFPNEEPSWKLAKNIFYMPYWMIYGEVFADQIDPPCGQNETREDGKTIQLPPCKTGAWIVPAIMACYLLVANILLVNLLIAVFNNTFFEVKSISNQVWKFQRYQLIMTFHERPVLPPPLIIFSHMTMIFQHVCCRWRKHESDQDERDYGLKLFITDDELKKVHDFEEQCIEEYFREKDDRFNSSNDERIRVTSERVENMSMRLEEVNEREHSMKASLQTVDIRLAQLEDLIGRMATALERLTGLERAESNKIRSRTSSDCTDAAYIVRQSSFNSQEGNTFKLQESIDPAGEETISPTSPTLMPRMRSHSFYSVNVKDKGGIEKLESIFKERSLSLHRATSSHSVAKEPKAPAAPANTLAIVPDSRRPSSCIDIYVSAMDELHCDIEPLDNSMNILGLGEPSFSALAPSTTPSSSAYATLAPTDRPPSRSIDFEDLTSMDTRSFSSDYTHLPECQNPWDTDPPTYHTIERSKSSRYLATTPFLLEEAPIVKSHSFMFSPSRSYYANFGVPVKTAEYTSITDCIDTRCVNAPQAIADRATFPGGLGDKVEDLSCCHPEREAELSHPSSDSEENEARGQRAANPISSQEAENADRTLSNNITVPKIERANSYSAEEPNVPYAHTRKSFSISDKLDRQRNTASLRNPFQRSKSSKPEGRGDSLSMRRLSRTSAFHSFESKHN

| SMILES | IC50 |
| --- | --- |
| Cn1nccc1COc1ccc2nn(C)c(C(=O)O)c2c1 [Cpd 123, 2-methyl-5-[(1-methyl-1H-pyrazol-5-yl)methoxy]-2H-indazole-3-carboxylic acid] | > 20 µM |
| Cc1ncc(COc2ccc3nn(C)c(C(=O)NC4(CO)CCOCC4)c3c2)s1 [Cpd 124, N-[4-(hydroxymethyl)oxan-4-yl]-2-methyl-5-[(2-methyl-1,3-thiazol-5-yl)methoxy]-2H-indazole-3-carboxamide] | > 20 µM |
| Cc1ncc(COc2ccc3nn(C)c(C(=O)N[C@@H](CO)C(N)=O)c3c2)s1 [Cpd 126, (2S)-3-hydroxy-2-({2-methyl-5-[(2-methyl-1,3-thiazol-5-yl)methoxy]-2H-indazol-3-yl}formamido)propanamide] | 1 to 20 µM |
| Cn1nc2ccc(OCc3ccccn3)cc2c1C(=O)NC(C)(CO)CO [Cpd 127, N-(1,3-dihydroxy-2-methylpropan-2-yl)-2-methyl-5-[(pyridin-2-yl)methoxy]-2H-indazole-3-carboxamide] | < 1 µM |
| Cn1nc2ccc(OCC3CCC3)cc2c1C(=O)NC(C)(CO)CO [Cpd 129, 5-(cyclobutylmethoxy)-N-(1,3-dihydroxy-2-methylpropan-2-yl)-2-methyl-2H-indazole-3-carboxamide] | 1 to 20 µM |
| Cn1nc2ccc(OCC3CCC3)cc2c1C(=O)N[C@@H](CO)C(N)=O [Cpd 130, (2S)-2-{[5-(cyclobutylmethoxy)-2-methyl-2H-indazol-3-yl]formamido}-3-hydroxypropanamide] | < 1 µM |
| Cc1ncc(COc2ccc3nn(C)c(C(=O)NC(C)(CO)CO)c3c2)o1 [Cpd 131, N-(1,3-dihydroxy-2-methylpropan-2-yl)-2-methyl-5-[(2-methyl-1,3-oxazol-5-yl)methoxy]-2H-indazole-3-carboxamide] | 1 to 20 µM |
| Cn1nc2ccc(OCC3CC3)cc2c1C(=O)NCC1CC1 [Cpd 133, 5-(cyclopropylmethoxy)-N-(cyclopropylmethyl)-2-methyl-2H-indazole-3-carboxamide] | > 20 µM |
| Cn1nc2ccc(OCC3CC3)cc2c1C(=O)NC(C)(C)C(N)=O [Cpd 134, 2-{[5-(cyclopropylmethoxy)-2-methyl-2H-indazol-3-yl]formamido}-2-methylpropanamide] | 1 to 20 µM |
| Cn1nc2ccc(OCC3CC3)cc2c1C(=O)NC(C)(CO)CO [Cpd 135, 5-(cyclopropylmethoxy)-N-(1,3-dihydroxy-2-methylpropan-2-yl)-2-methyl-2H-indazole-3-carboxamide] | 1 to 20 µM |
| Cn1nc2ccc(OCC3CC3)cc2c1C(=O)N[C@H](CO)C(N)=O [Cpd 136, (2R)-2-{[5-(cyclopropylmethoxy)-2-methyl-2H-indazol-3-yl]formamido}-3-hydroxypropanamide] | 1 to 20 µM |
| Cn1nc2ccc(OCC3CC3)cc2c1C(=O)N[C@@H](CO)C(N)=O [Cpd 137, (2S)-2-{[5-(cyclopropylmethoxy)-2-methyl-2H-indazol-3-yl]formamido}-3-hydroxypropanamide] | < 1 µM |
| C[C@@H](O)[C@H](NC(=O)c1c2cc(OCC3CC3)ccc2nn1C)C(N)=O [Cpd 138, (2S,3R)-2-{[5-(cyclopropylmethoxy)-2-methyl-2H-indazol-3-yl]formamido}-3-hydroxybutanamide] | 1 to 20 µM |
| Cn1nc2ccc(OCC3CC3)cc2c1C(=O)NCCNS(C)(=O)=O [Cpd 140, 5-(cyclopropylmethoxy)-N-(2-methanesulfonamidoethyl)-2-methyl-2H-indazole-3-carboxamide] | > 20 µM |
| Cc1ncc(COc2ccc3nn(C)c(C(=O)N[C@@H](CO)C(N)=O)c3c2)o1 [Cpd 141, (2S)-3-hydroxy-2-({2-methyl-5-[(2-methyl-1,3-oxazol-5-yl)methoxy]-2H-indazol-3-yl}formamido)propanamide] | < 1 µM |
| Cc1ncc(COc2ccc3nn(C)c(C(=O)N[C@H](C(N)=O)[C@@H](C)O)c3c2)o1 [Cpd 142, (2S,3R)-3-hydroxy-2-({2-methyl-5-[(2-methyl-1,3-oxazol-5-yl)methoxy]-2H-indazol-3-yl}formamido)butanamide] | 1 to 20 µM |
